In patent US20040241708A1, “Recombinant vector for transforming strain to detect benzoic acid and derivatives thereof, transformant containing the recombinant vector, and method for detecting benzoic acid and derivatives thereof using the transformant” (priority 2003, published 2004) one finds bioluminescence intensity and minimal effective concentration data, which are given here for eight molecules.

The experiment has as its system transformant EBNAG1 (E. coli RFM443/pNAG1, nagR-PnagG::luxCDABE). In words: Detectability of transformant EBNAG1 on benzoic acid and derivatives (bioluminescence response). In kind it is cell-based, Escherichia coli. The conditions noted are these: for bioluminescence intensity: EBNAG1, 0.1953125-12.5 mM, 3 hours after seeding, FIGS. 3a and 3b; for minimal effective concentration: Escherichia coli, read-out: MDC (Minimum detection concentration). Here is the method:
The EBNAG1 strain was cultivated in a 100 ml LB medium supplemented with 50 μg/ml ampicillin at 30° C. until the absorbance reached 0.08 (at 600 nm). 100 μl of aliquot was taken from the culture for the measurement of the bioluminescence intensity, and was then poured on each well of an opaque96-well plate [Microlite™, Thermo Labsystems, USA] containing chemicals to be tested (benzoic acid concentrations: 12.5, 6.25, 3.125, 1.5625, 0.78125, 0.390625 and 0.1953125 mM, and salicylic acid concentrations: 12.5, 6.25, 3.125, 1.5625, 0.78125, 0.390625 and 0.1953125 mM). The well plates were placed in a 96-well microtiter plate reader (MLX Microtiter® Plate Luminometer, DYNEX Technology, USA) to measure the bioluminescence intensity.
FIGS. 3a and 3b show the results of bioluminescent signals obtained from EBNAG1 after seeding benzoic acid and salicylic acid as a representative benzoic acid derivative at various concentrations, respectively.

As for `O=C(O)c1ccccc1O` [Salicylic acid], the bioluminescence intensity result is listed as “increased in proportion to the salicylic acid concentrations” and the minimal effective concentration was 195 µM. For the molecule `COc1ccc(CO)cc1OC` [3,4-Dimethoxybenzylalcohol], the minimal effective concentration was 390 µM. Still for that read-out and setting: as for `O=C(O)c1cc(O)cc(O)c1` [3,5-Dihydroxybenzoic acid], the figure is 3130 µM; as for `O=C(O)c1ccc(O)c(O)c1` [3,4-Dihydroxybenzoic acid], 6250 µM. In the case of `O=C(O)c1ccccc1` [Benzoic acid], the bioluminescence intensity entry is “increased in proportion to the benzoic acid concentrations” and the minimal effective concentration came out at 390 µM. Regarding `O=C(O)c1ccc(O)cc1O` [2,4-Dihydroxybenzoic acid], the minimal effective concentration stood at 3130 µM. Same read-out and setting: as for `O=C(O)c1cc(Cl)ccc1O` [5-Chlorosalicylic acid], the figure is 390 µM; as for `O=C(O)c1ccc(Cl)cc1O` [4-Chlorosalicylic acid], under 390 µM.
